The values that follow come from PubChem BioAssay (NCI).

Holding throughout (test): NCI-60 cell line screen, 48 h
For test [1], the system named is NCI-H522 lung.
Test [2] relates to SNB-19 CNS.
Test [3] concerns MOLT-4 leukemia.
Test [4] has as its system UACC-62 melanoma.
Test [5] has as its system LOX IMVI melanoma.
Test [6] relates to U251 CNS.
In test [7] the test system is SF-539 CNS.
In test [8] the test system is NCI-H226 lung.
Test [9] relates to MDA-MB-435.
In test [10] the test system is SF-268 CNS.

Several values for one entry are separate records, joined by “and”; a condition that tells them apart may be missing. Identical values can stand only once.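 Dose response: 5 concentrations. Exposure: 48 h. Format: 96-well plates. Endpoint: linear interpolation; highest concentration if not reached. GI50: concentration for 50% inhibition of growth. TGI: total growth inhibition.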

`C=CCCCC12CCCc3cccc(c31)NC2=O` (stereo not drawn): the TGI in test [1] is 31.3 µM; in [2], 61.9 µM; in [3] it was 55.1 µM; in test [4] it was 31.3 µM; in test [5], 62.3 µM; in test [6], 50.3 µM. The figures for the TGI in test [7] and in [8] were 47.4 µM and 40.3 µM, respectively.

`Cc1nc2cc(C(F)(F)F)ccc2[nH]c1=O`: the TGI in [9], in test [10], in test [2], in [3], in [4] and in test [5] was over 100 µM throughout. Besides, the TGI in test [6], in [7] and in [8] was over 100 µM each time.

`COC(c1ccc(C(C)(C)C)cc1)(c1ccc(C(C)(C)C)cc1)c1cc(C(O)(c2cc(C(OC)(c3ccc(C(C)(C)C)cc3)c3ccc(C(C)(C)C)cc3)c(C)cc2C)c2cc(C(OC)(c3ccc(C(C)(C)C)cc3)c3ccc(C(C)(C)C)cc3)c(C)cc2C)c(C)cc1C`: the TGI in [9], in [10], in test [3], in test [4], in test [5] and in test [6] was over 100 µM in each case. For the same molecule, the TGI in test [7] and in test [8] was over 100 µM in each case.

For `O=C1C(Cl)N(c2ccccc2)C1c1c[nH]c2ccccc12` (stereo not drawn), the TGI in test [1], in test [10], in test [2], in test [3], in test [4] and in test [6] was over 100 µM each time. For the same molecule, the TGI in [7] was over 100 µM.

With `Cc1nc2nnc(C)n2c2c1C(=O)Nc1ccccc1N2`, the TGI in test [1], in [10], in [2], in test [3], in [4] and in [5] was over 100 µM in each case. Besides, the TGI in test [6], in [7] and in [8] was over 100 µM throughout.

For the molecule `O=C(OCc1ccccc1)OOC(=O)OCc1ccccc1`, the TGI in [1], in test [10], in [2], in test [3], in test [4] and in test [6] was over 100 µM each time. This molecule also had a TGI in test [7] of over 100 µM.

Consider `CN(C)c1ccc(/C(Br)=C2\OC(=O)c3ccccc32)cc1`, for which the TGI in [9], in test [10], in test [2], in test [3], in [4] and in [5] was over 100 µM in each case. Moreover, the TGI in test [6], in [7] and in test [8] was over 100 µM throughout.

Take `Nc1ncnc2c1ncn2C(=O)NC12CC3CC(CC(C3)C1)C2`: the TGI in test [9], in test [10], in test [2], in test [3], in [4] and in test [5] was over 100 µM throughout. Further, the TGI in test [6], in test [7] and in test [8] was over 100 µM throughout.

On to `CCOP(=O)(OCC)/C(F)=C/c1ccccc1`, for which the TGI in test [9], in test [1], in [10], in test [2], in test [3] and in test [4] was over 100 µM each time. The TGI in test [5], in test [6] and in test [7] was over 100 µM each time.

Regarding `Cc1cc2cccc(Cl)c2nc1C(=O)c1ccccc1`, the TGI in test [1], in test [10], in test [2], in test [4], in test [5] and in [6] was over 100 µM throughout. Further, the TGI in test [7] and in test [8] was over 100 µM each time.

Turning to `CO/N=C1/c2sccc2[C@H](NC(=O)CNC(=O)OC(C)(C)C)[C@@H]1O`, the TGI in [9], in [10], in test [2], in test [3], in test [4] and in [5] was over 100 µM each time. In addition, the TGI in test [6], in [7] and in [8] was over 100 µM each time.

In the case of `COC(=O)C1CC(C=[N+](C)C)=C(SC)N1` (stereo not drawn), the TGI in test [9], in test [1], in [10], in test [2], in test [3] and in test [4] was over 100 µM throughout. The molecule further yielded a TGI in [6] of over 100 µM.

Regarding `Cc1cc(O)cc(O)c1N=Nc1ccc([N+](=O)[O-])cc1`, the TGI in test [9] was 42.4 µM; in test [1] it was 14.5 µM; in test [10], over 100 µM; in [2], over 100 µM; in test [3], 17.3 µM; in test [4], 32.2 µM. For the same molecule, the values for the TGI in test [5], in test [6] and in [7] were 84.8 µM, 53.9 µM and 49.9 µM, respectively.

With `COc1cc([C@@H]2c3cc4c(cc3C[C@H]3COC(=O)[C@@H]32)OCO4)cc(OC)c1OC`, the GI50 is 0.003 µM and 0.00924 µM in test [1]; 0.00581 µM in test [10]; 0.00666 µM in test [2]; 0.00428 µM in [3]; 0.0028 µM in [4]; 0.00281 µM and 0.005 µM in test [5]. Also, the GI50 is 0.00392 µM in test [6]; 0.00279 µM and 0.0062 µM in test [7]; 0.00524 µM in test [8]. The TGI in [1] is 0.00689 µM; in [10] it was over 50 µM; in test [2], over 7.93 µM; in test [3], 0.12 µM; in [4], over 50 µM; in test [5] it was over 50 µM. In addition, the values for the TGI in [6], in test [7] and in test [8] were 1.5 µM, 0.00812 µM and 0.891 µM, respectively.

`Cc1nc2ccc([N+](=O)[O-])cc2c(=O)n1C(=S)Nc1cccc(Cl)c1`: the TGI in [9] was 41.2 µM; in test [10] it was 42.9 µM; in [2], over 100 µM; in [3] it was over 100 µM; in [4] it was 29.1 µM; in [5], 35.3 µM. Further, the values for the TGI in test [6], in [7] and in test [8] were 66.9 µM, 43.1 µM and 44 µM, respectively.

On to `COc1cccc(-c2nc(-c3cnccn3)n(Cc3ccccc3)n2)c1`, for which the TGI in test [9], in test [1], in test [10], in test [2], in test [3] and in [4] was over 100 µM each time. The TGI in test [5], in [6] and in [7] was over 100 µM each time.

For the molecule `CC(=O)Nc1ccc(Cl)c(Cl)c1`, the TGI in test [1], in [10], in test [2], in [3], in test [4] and in [5] was over 100 µM throughout. In addition, the TGI in [6], in [7] and in [8] was over 100 µM each time.

Take `O=C(/C=C/c1cccs1)c1ccc(Cl)cc1`: the TGI in test [10] is over 100 µM; in test [2], over 100 µM; in test [3] it was 48.9 µM; in test [4], over 100 µM; in test [6] it was over 100 µM; in [7], over 100 µM. In addition, in test [8], the TGI was over 100 µM.

Turning to `Cc1cccc(C[C@@]2(SCc3ccccc3)C(C)(C)[C@@H]3CC[C@@]2(C)C3)n1`, the TGI in test [9] was found to be 78.3 µM; in test [1], 29.1 µM; in test [10], 29.5 µM; in test [2], 33.1 µM; in test [3], 27.3 µM; in test [4], 35.5 µM. The figures for the TGI in [5], in test [6] and in test [7] were 30.2 µM, 30.2 µM and 55.1 µM, respectively.

Take `O=C(O)c1ccc(NS(=O)(=O)Cc2ccccc2)cc1`: the TGI in test [9], in test [1], in [10], in test [2], in test [3] and in test [4] was over 100 µM each time. Further, the TGI in test [5], in [6] and in [7] was over 100 µM each time.

For the molecule `CC(=O)/C(=C/n1c(=S)sc2ccccc21)C(=O)Nc1ccccc1C`, the TGI in [9], in [10], in test [2], in [3], in [4] and in test [5] was over 100 µM throughout. Moreover, the TGI in [6], in test [7] and in test [8] was over 100 µM throughout.

As to `CCOC(=O)c1cnc2[nH]ccn2c1=O`, the TGI in [9], in test [10], in test [2], in [3], in [4] and in test [5] was over 10 µM in each case. The TGI in test [6], in [7] and in test [8] was over 10 µM throughout.

As to `O=C(CCc1ccc(O)cc1)c1c(O)cc(O)cc1OC1OC(CO)C(O)C(O)C1O` (stereo not drawn), the TGI in test [9], in [10], in test [4], in [5] and in [7] was over 100 µM throughout.

For the molecule `CC(C)=CC1C(C(=O)O)C1(C)C` (stereo not drawn), the TGI in test [1], in [10], in test [2], in [3], in test [4] and in [5] was over 750 µM each time. Further, the TGI in [6], in test [7] and in test [8] was over 750 µM throughout.

On to `CCOC(=O)C1CC(O)C(=O)N1C` (stereo not drawn), for which the TGI in test [9], in [2], in [3], in test [4], in test [5] and in test [6] was over 100 µM each time. Also, the TGI in [7] and in [8] was over 100 µM throughout.

In the case of `COc1cccc(C2c3cc4c(cc3OC(N3CCCC3)C2C)OCO4)c1OC` (stereo not drawn), the TGI in [9] was 14.3 µM; in [1], 25.5 µM; in test [10], 21 µM; in test [2], 5.33 µM; in [3], 10.7 µM; in test [4] it was 34.5 µM. Moreover, the TGI in test [5] came out at 4.07 µM; in [7], 16.2 µM.

On to `c1ccc(N=c2snc(-c3ccccc3)s2)cc1`, for which the TGI in test [1], in [10], in test [2], in test [3], in [4] and in [6] was over 100 µM in each case. Moreover, the TGI in [7] and in test [8] was over 100 µM throughout.

Turning to `COc1cc2c(cc1OC)C(=O)/C(=C/c1cc(C)c(O)c(C)c1)C2`, the TGI in test [1] is over 95.9 µM; in [10], over 100 µM; in [2], over 100 µM; in test [3], over 100 µM; in test [4], over 100 µM; in test [5] it was over 47.3 µM. Besides, the TGI in [6] is over 100 µM; in test [7], over 100 µM; in test [8], over 59.7 µM.

For the molecule `CC(=O)CC(=O)c1cc2c(=O)oc(C)cc2oc1=O`, the TGI in [1], in test [10], in test [2], in [3], in test [4] and in [6] was over 37.5 µM throughout. The TGI in test [7] and in [8] was over 37.5 µM in each case.

Regarding `OCc1ccccc1C1CSCSC1`, the TGI in [1], in [10], in [3], in test [4], in test [5] and in [6] was over 100 µM in each case. The TGI in [7] and in test [8] was over 100 µM each time.

Turning to `N#CC(C#N)=C1CCCS(=O)(=O)c2ccccc21`, the TGI in test [9], in test [10], in test [2], in [3], in test [4] and in test [5] was over 100 µM each time. Moreover, the TGI in test [6], in test [7] and in [8] was over 100 µM throughout.
